This is an account of results in US9067892B2, “Spiroheterocyclic N-oxypiperidines as pesticides” (Syngenta Crop Protection, Inc., priority 2008, dated 2015).

The test system of data set [1] is Myzus persicae (green peach aphid). Kind of data set: Example B14: drench activity against Myzus persicae in field soil, persistence, comparison with state of the art. It is filed as in vivo. The following applies: for mortality at 12.5 ppm: Myzus persicae, soil, pepper plants in field soil, read-out: Mortality (%) xx days after application (drench, systemic action, persistence). The method, then: (§1) Six weeks old pepper plants cultivated in field soil are treated as drench application at various rates (mg a.i./liter soil). The same day, plants are infested with a mixed population of M. persicae and incubated in the greenhouse under optimal greenhouse conditions. Samples are assessed 7 days after infestation on mortality. Treated plants are re-infested 7, 14, 21 and 28 days after application. Evaluation is always done 7 days after infestation. Plants are also checked for damage (phytotoxicity), visual assessment being made using a 0-100% rating scale (100%=total damage to plant; 0%=no damage to plant).

A further data set deals with pepper plants. As to conditions: in vivo. Here is the method:
as §1

Data set [2] concerns Aphis craccivora (cowpea aphid). Kind of data set: Example B10: Aphis craccivora, mixed population, systemic/feeding. Type of data set: in vivo. As to conditions: 144 h, roots of infested pea seedlings in test solution, 6 days, mortality. From the text:
6 days later, samples are checked for mortality.

In data set [3] the test system is Myzus persicae (green peach aphid). Kind of data set: Example B2: Myzus persicae, mixed population, systemic/feeding activity, curative. The following applies: 144 h, read-out: activity.
Data set [4] deals with Tetranychus urticae (two-spotted spider mite). As to the kind of experiment: Example B4: Tetranychus urticae, mixed population, feeding/residual contact activity, preventive. Type of data set: in vivo. As to conditions: foliar, 192 h, bean leaf discs sprayed, 8 days, egg, larval and adult mortality. From the text:
Activity Against Tetranychus urticae (Two-Spotted Spider Mite) (Mixed Population, Feeding/Residual Contact Activity, Preventive) Bean leaf discs on agar in 24-well microtiter plates are sprayed with test solutions. […] 8 days later, discs are checked for egg mortality, larval mortality, and adult mortality.

Data set [5] relates to Nilaparvata lugens (brown rice planthopper). Kind of data set: Example B8: Nilaparvata lugens, larvicide, feeding/contact. Type of data set: in vivo. The following applies: rice seedlings sprayed, N3 nymphs, 6-12 days after treatment. The method, then:
Activity Against Nilaparvata lugens (Brown Rice Planthopper) (Larvicide, Feeding/Contact) Rice seedlings are treated with the diluted test solutions in a spray chamber. After drying, they are infested with 20 N3 nymphs (2 replicates). 6-12 days after the treatment samples are checked for mortality, growth regulation, and effects on the F1 generation.

Data set [6] relates to Thrips Tabaci (onion thrips). As to the kind of experiment: Example B3: Thrips tabaci, mixed population, feeding/residual contact activity, preventive. It is filed as in vivo. As to conditions: foliar, 144 h, sunflower leaf discs sprayed, 6 days incubation, mortality.
Data set [7] concerns Aphis craccivora (cowpea aphid). As to the kind of experiment: Example B15: Aphis craccivora, mixed population, adjuvant effect, curative. Type of data set: in vivo. As to conditions: for Abbott's efficacy (%) against Aphis craccivora: 3 ppm, formulated as EC050, adjuvant 0.1% (v/v) where named, broad bean plants, 7 days after treatment. The method, then: One day after infestation, plants are treated with diluted test solutions of the compound formulated as EC050 in a spray chamber (4 replicates). […] Efficacy was calculated with the aid of Abbott's formula.

Data set [8] has as its system Myzus persicae (green peach aphid). Kind of data set: Example B13: drench activity against Myzus persicae. It is filed as in vivo. The following applies: 168 h, pea seedlings in field soil, 7 days after infestation, mortality. Here is the method:
Drench Activity Against Myzus persicae (Green Peach Aphid) Pea seedlings cultivated in field soil are treated as drench application and infested with a mixed population of M. persicae. 7 days after infestation, samples are checked for mortality.

The test system is the same in data set [9]. As to the kind of experiment: Example B16: Myzus persicae on pepper plants, feeding/residual contact activity. Type of data set: in vivo. The following applies: 144 h, infested pepper plants sprayed, 6 days after treatment, mortality, read-out: activity against Myzus persicae.
Data set [10] deals with Aphis craccivora (cowpea aphid). Kind of data set: Example B11: translaminar activity against Aphis craccivora. It is filed as in vivo. The following applies: 120 h, French bean leaves, aphids on lower side, upper side painted, 5 days, mortality. Here is the method: Translaminar Activity Against Aphis craccivora (Cowpea Aphid) French bean leaves (Phaseolus vulgaris) are infested with about 20 mixed age individuals on the lower leaf side using clip cages. 1 day after the infestation, the upper side of the leaves is treated with the test solution by painting. 5 days later, samples are checked for mortality.

The subject of data set [11] is Myzus persicae (green peach aphid). As to the kind of experiment: Example B1: Myzus persicae, mixed population, feeding/residual contact activity, preventive. As to conditions: foliar, 144 h, read-out: activity.
The mark [12] stands for this setting: 0 days after application (infestation day; evaluated 7 days after infestation).
The mark [13] stands for this setting: 14 days after application (re-infestation; evaluated 7 days after infestation).
Where [14] appears, read: 21 days after application (re-infestation; evaluated 7 days after infestation).
The mark [15] stands for this setting: 28 days after application (re-infestation; evaluated 7 days after infestation).
The mark [16] stands for this setting: 168 h, 7 days after application (re-infestation; evaluated 7 days after infestation).

As usually defined, the mortality is the percentage killed.

Read-outs that look alike come from different tables or passages of the source.

`CCOC(=O)OC1=C(c2c(C)cc(C)cc2C)C(=O)NC12CCN(OC)CC2` [A18, reference compound]: the mortality at 12.5 ppm in data set [1] (setting [12]) came out at 100%; in [1] (setting [13]) it was 98%; in data set [1] (setting [14]), 95%; in [1] (setting [15]), 95%; in [1] (setting [16]), 100%. For the same molecule, the “plant compatibility on pepper plants (in words)” value with pepper plants was “damages these to an untolerable high extend”.
For `CCOC(=O)OC1=C(c2c(C)cc(C)cc2C)C(=O)N(C)C12CCN(OC)CC2` [P1.2, Carbonic acid ethyl ester 8-methoxy-1-methyl-2-oxo-3-(2,4,6-trimethyl-phenyl)-1,8-diaza-spiro[4.5]dec-3-en-4-yl ester], the pest or weed control at 400 ppm in [2], in [3], in data set [4], in data set [5], in data set [6] and in [10] was above 80% throughout. Besides, in data set [11], the pest or weed control at 400 ppm was above 80%. Moreover, the mortality at 12.5 ppm came out at 98% in [1] (setting [12]); 98% in data set [1] (setting [13]); 100% in data set [1] (setting [14]); 98% in [1] (setting [15]); 98% in data set [1] (setting [16]). The “insecticidal action on Myzus persicae (in words)” value in data set [1] (summary of Table B14, drench) was “very similar to the action of the compound of the state of the art”. Further, the “plant compatibility on pepper plants (in words)” value in the data set on pepper plants is “no damage at all”. The “Abbott's efficacy (%) against Aphis craccivora” value came to 54% in data set [7] (Table B15A) and 25% in data set [7] (Table B15B). In [7] (summary of Tables B15A and B15B), the “effect of adjuvants on insecticidal activity (in words)” value is on record as “enhance the insecticidal activity of compound P1.2 significantly”. Besides, the pest or weed control at 25 ppm in data set [8] is above 80%. Also, the pest or weed control at 200 ppm in [9] was at least 80%.
As to `CCOC(=O)OC1=C(c2c(C)cc(C)cc2C)C(=O)N(COC)C12CCN(OC)CC2` [P1.3], the pest or weed control at 400 ppm in data set [2], in data set [3], in [4], in [5], in [6] and in data set [10] was above 80% in each case. Besides, the pest or weed control at 400 ppm in data set [11] was above 80%. This molecule also came in with a pest or weed control at 25 ppm in data set [8] above 80%.
As to `CCOCN1C(=O)C(c2c(C)cc(C)cc2C)=C(OC(=O)OCC)C12CCN(OC)CC2` [P1.4], the pest or weed control at 400 ppm in data set [2], in data set [3], in data set [5], in [10] and in data set [11] was above 80% each time. For the same molecule, the pest or weed control at 25 ppm in data set [8] was above 80%. Moreover, the pest or weed control at 200 ppm in [9] was at least 80%.
On to `CCOC(=O)OC1=C(c2c(C)cc(C)cc2Br)C(=O)N(C)C12CCN(OC)CC2` [P1.11], for which the pest or weed control at 400 ppm in [2], in data set [3], in data set [5], in data set [10] and in data set [11] was above 80% throughout. The molecule further came in with a pest or weed control at 25 ppm in data set [8] above 80%. Also, the pest or weed control at 200 ppm in data set [9] was at least 80%.
Turning to `CCOC(=O)OC1=C(c2c(C)cc(C)cc2C)C(=O)N(COCCOC)C12CCN(OC)CC2` [P1.18], the pest or weed control at 400 ppm in data set [2], in [3], in data set [4], in data set [5], in data set [6] and in [10] was above 80% in each case. Further, the pest or weed control at 400 ppm in data set [11] was above 80%. In data set [8], this molecule yielded a pest or weed control at 25 ppm above 80%.
Turning to `CON1CCC2(CC1)C(O)=C(c1c(C)cc(C)cc1C)C(=O)N2C` [P2.2, 4-hydroxy-8-methoxy-1-methyl-3-(2,4,6-trimethyl-phenyl)-1,8-diaza-spiro[4.5]dec-3-en-2-one], the pest or weed control at 400 ppm in data set [2], in data set [3], in [4], in data set [5], in [6] and in data set [10] was above 80% each time. Besides, the pest or weed control at 400 ppm in data set [11] is above 80%. In addition, the pest or weed control at 25 ppm in [8] is above 80%. The pest or weed control at 200 ppm in data set [9] was at least 80%.
As to `COCN1C(=O)C(c2c(C)cc(C)cc2C)=C(O)C12CCN(OC)CC2` [P2.6], the pest or weed control at 400 ppm in data set [2], in data set [3], in data set [4], in data set [5], in [6] and in data set [10] was above 80% throughout. Further, the pest or weed control at 400 ppm in [11] is above 80%. For the same molecule, in data set [8], the pest or weed control at 25 ppm was above 80%. In addition, in data set [9], the pest or weed control at 200 ppm is at least 80%.
As to `CON1CCC2(CC1)C(O)=C(c1c(C)cc(C)cc1Br)C(=O)N2C` [P2.14], the pest or weed control at 400 ppm in [2], in data set [4], in data set [5], in data set [10] and in data set [11] was above 80% in each case. In data set [8], the pest or weed control at 25 ppm was above 80%.
In the case of `COCCOCN1C(=O)C(c2c(C)cc(C)cc2C)=C(O)C12CCN(OC)CC2` [P2.19], the pest or weed control at 400 ppm in data set [2], in data set [3], in [4], in data set [5], in data set [6] and in [10] was above 80% in each case. Moreover, the pest or weed control at 400 ppm in data set [11] is above 80%. The molecule further returned a pest or weed control at 25 ppm in data set [8] above 80%.
